In data set [1] the test system is methicillin susceptible Staphylococcus aureus strain ATCC 29213. Put plainly: In vivo antibacterial activity, experimental model of thigh infection in neutropenic mice. The settings on record: 1.5 h after infection, neutropenic female Swiss mice, 20 h.
Data set [2] deals with HSA (human albumin) (Homo sapiens (Human), UniProt P02768). In words: HSA binding analysis using a chiral HSA column. The format is in vitro ADME. The settings on record: for k′ (capacity factor): 37° C., pH 7.0, k′=(Tr-T0)/T0; for HSA binding Conclusion: classification of AB %. An excerpt: The test system used in this analysis was an HSA chiral column.
Chain of HSA (human albumin) (P02768 25-609): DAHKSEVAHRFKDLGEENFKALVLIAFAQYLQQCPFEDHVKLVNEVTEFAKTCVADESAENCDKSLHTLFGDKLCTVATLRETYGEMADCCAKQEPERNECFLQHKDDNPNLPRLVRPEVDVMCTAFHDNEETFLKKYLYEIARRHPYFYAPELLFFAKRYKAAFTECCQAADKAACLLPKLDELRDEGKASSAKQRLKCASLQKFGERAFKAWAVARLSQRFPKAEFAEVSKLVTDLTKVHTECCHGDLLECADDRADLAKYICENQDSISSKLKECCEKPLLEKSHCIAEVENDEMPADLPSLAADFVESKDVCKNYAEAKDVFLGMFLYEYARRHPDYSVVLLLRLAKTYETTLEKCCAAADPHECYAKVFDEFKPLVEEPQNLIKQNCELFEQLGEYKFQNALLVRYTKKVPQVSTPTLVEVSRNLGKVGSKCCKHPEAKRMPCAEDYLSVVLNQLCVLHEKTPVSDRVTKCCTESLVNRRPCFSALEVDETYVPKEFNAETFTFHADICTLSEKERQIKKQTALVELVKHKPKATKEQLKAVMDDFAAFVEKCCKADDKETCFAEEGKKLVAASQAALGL
The relationship between the retention time (Tr) and percentage of albumin binding (AB %) depended on the dead time (T0) and the capacity factor (k′): AB %=[k′/(k′+1)]*100 • where k′=(Tr-T0)/T0

For data set [3], the target named is E. coli FabI (Escherichia coli (strain K12), UniProt P0AEK4). The settings on record: cited from earlier work.
Chain of E. coli FabI (P0AEK4 whole entry): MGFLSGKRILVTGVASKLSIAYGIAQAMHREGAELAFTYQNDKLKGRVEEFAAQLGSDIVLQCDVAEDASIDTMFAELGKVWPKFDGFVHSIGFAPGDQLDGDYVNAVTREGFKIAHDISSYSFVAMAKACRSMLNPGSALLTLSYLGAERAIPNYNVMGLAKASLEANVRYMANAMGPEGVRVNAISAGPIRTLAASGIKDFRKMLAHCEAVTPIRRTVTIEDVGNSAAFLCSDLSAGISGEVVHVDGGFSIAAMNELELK

Molecules are shown by their SMILES.

In the case of `CCCCCOC1CN(C(=O)/C=C/c2cnc3c(c2)CCC(=O)N3)C1` [Example 15, 6-{(1E)-3-Oxo-3-[3-(pentyloxy)azetidin-1-yl]prop-1-en-1-yl}-3,4-dihydro-1,8-naphthyridin-2(1H)-one], the “in vivo antibacterial activity (bacterial burden in the thigh of infected mice)” value in data set [1] (50 mg/kg subcutaneously) is recorded as “able to protect mice against thigh dissemination”.

Regarding `O=C1CCc2cc(/C=C/C(=O)N3CC(c4cc5ccccc5o4)C3)cnc2N1` [Example 59, (E)-6-(3-(3-(Benzofuran-2-yl)azetidin-1-yl)-3-oxoprop-1-enyl)-3,4-dihydro-1,8-naphthyridin-2(1H)-one], in data set [2], the “affinity in vitro to human albumin” value was “moderate affinity”, the “k′ (capacity factor)” value stood at 4.678 and the “HSA binding Conclusion” value is “Moderate”.

Turning to `CCCO/N=C(/C)C1CN(C(=O)/C=C/c2cnc3c(c2)CCC(=O)N3)C1` [Example 71, 6-((E)-3-Oxo-3-(3-((Z)-1-(propoxyimino)ethyl)azetidin-1-yl)prop-1-enyl)-3,4-dihydro-1,8-naphthyridin-2(1H)-one], in data set [2], the “affinity in vitro to human albumin” value was “low affinity”, the “k′ (capacity factor)” value was 0.404 and the “HSA binding Conclusion” value is “Low binding (AB≦75%: Low binding)”.

Regarding `CCCCOC1CN(C(=O)/C=C/c2cnc3c(c2)CC2(CCN(C)CC2)C(=O)N3)C1` [Example 63, (E)-6-(3-(3-Butoxyazetidin-1-yl)-3-oxoprop-1-enyl)-1′-methyl-1H-spiro[[1,8]naphthyridine-3,4′-piperidin]-2(4H)-one], in data set [2], the “affinity in vitro to human albumin” value is reported as “low affinity”, the “k′ (capacity factor)” value was 1.288 and the “HSA binding Conclusion” value was “Low binding (AB≦75%: Low binding)”.

Turning to `O=C1CCc2cc(/C=C/C(=O)N3CC(OCCc4cccs4)C3)cnc2N1` [Example 29, (E)-6-(3-Oxo-3-(3-(2-(thiophen-2-yl)ethoxy)azetidin-1-yl)prop-1-enyl)-3,4-dihydro-1,8-naphthyridin-2(1H)-one], in data set [2], the “affinity in vitro to human albumin” value is reported as “low affinity”, the “k′ (capacity factor)” value is given as 1.259 and the “HSA binding Conclusion” value is given as “Low binding (AB≦75%: Low binding)”.

Turning to `CN1CCC2(CC1)Cc1cc(/C=C/C(=O)N3CC(c4cc5ccccc5o4)C3)cnc1NC2=O` [Example 69, (E)-6-(3-(3-(Benzofuran-2-yl)azetidin-1-yl)-3-oxoprop-1-en-1-yl)-1′-methyl-1H-spiro[[1,8]naphthyridine-3,4′-piperidin]-2(4H)-one], in data set [2], the “affinity in vitro to human albumin” value is recorded as “moderate affinity”, the “k′ (capacity factor)” value came out at 7.730 and the “HSA binding Conclusion” value is given as “Moderate”.

For `CCCO/N=C(\C)C1CN(C(=O)/C=C/c2cnc3c(c2)CCC(=O)N3)C1` [Example 70, 6-((E)-3-Oxo-3-(3-((E)-1-(propoxyimino)ethyl)azetidin-1-yl)prop-1-enyl)-3,4-dihydro-1,8-naphthyridin-2(1H)-one], in data set [2], the “affinity in vitro to human albumin” value is “low affinity”, the “k′ (capacity factor)” value is 0.580 and the “HSA binding Conclusion” value is “Low binding (AB≦75%: Low binding)”.

With `Cc1c(C2CN(C(=O)/C=C/c3cnc4c(c3)CC3(CCN(C)CC3)C(=O)N4)C2)oc2ccccc12` [Example 68, (E)-1′-Methyl-6-(3-(3-(3-methylbenzofuran-2-yl)azetidin-1-yl)-3-oxoprop-1-enyl)-1H-spiro[[1,8]naphthyridine-3,4′-piperidin]-2(4H)-one], in data set [2], the “affinity in vitro to human albumin” value was “high affinity”, the “k′ (capacity factor)” value is recorded as 11.216 and the “HSA binding Conclusion” value is on record as “High binding (AB≦90%: High binding)”.

Turning to `Cc1c(C2CN(C(=O)/C=C/c3cnc4c(c3)CCC(=O)N4)C2)oc2ccccc12` [Example 67, (E)-6-(3-(3-(3-Methylbenzofuran-2-yl)azetidin-1-yl)-3-oxoprop-1-enyl)-3,4-dihydro-1,8-naphthyridin-2(1H)-one], in data set [2], the “affinity in vitro to human albumin” value is “moderate affinity”, the “k′ (capacity factor)” value is recorded as 8.360 and the “HSA binding Conclusion” value is “Moderate”.

`Oc1cc(Cl)ccc1Oc1ccc(Cl)cc1Cl` [Triclosan]: in data set [3], the “type of inhibition of E. coli FabI” value is listed as “reversible, tight-binding inhibitor”.

For `O=C1CCc2cc(/C=C/C(=O)N3CC(OCc4cccs4)C3)cnc2N1` [Example 12, 6-{(1E)-3-Oxo-3-[3-(2-thienylmethoxy)azetidin-1-yl]prop-1-en-1-yl}-3,4-dihydro-1,8-naphthyridin-2(1H)-one], the “in vivo antibacterial activity (bacterial burden in the thigh of infected mice)” value in data set [1] (100 mg/kg orally) was “able to protect mice against thigh dissemination”. In data set [2], the “affinity in vitro to human albumin” value is recorded as “low affinity”, the “k′ (capacity factor)” value came out at 0.826 and the “HSA binding Conclusion” value is “Low binding (AB≦75%: Low binding)”.

The record behind these values is US9051321B2, “Heterocyclic acrylamides and their use as pharmaceuticals” (FAB PHARMA S.A.S, priority 2009, dated 2015).
